Reference: patent US6787564B2, “Optically active clausenamides, process of the preparation thereof, pharmaceutical composition containing the same and their medical use” (Institute of Materia Medica, Chinese Academy of Medical …, priority 2002, dated 2004)

How the values were obtained:
rats = experiment: mossy fiber sprouting in fascia dentata and hippocampal CA3 region; type: in vivo; conditions: 8 and 40 mg·kg^−1 orally daily for 10 days; adult rat
Source text: 2. […] This is morphological basis for levoclausenamide to incnease synaptic transmission (see FIGS. 1 and 2).

[1] = tested on: β-AP (25-35)-treated rats; experiment: one trial passive avoidance of β-AP (25-35)-treated rats; type: in vivo; conditions: n = 9
Bcl-2 = Bcl-2 expression level by western blot in 6-OHDA treated Bax α high expressing PC12 cells; type: cell-based; conditions: 10^−7M, 10^−6M; 24 hours after 6-OHDA treatment
Source text: (§1) It means that Bax α expression may promote the production of reactive oxygen species. The antiapoptotic effect of (−) clausenamide may be attributed to its reduction of the mitochondrial MDA level and the increase of mitochondrial GSH level. The increased mitochondrial GSH may be the result of the increased Bcl-2 level. As Bcl-2 itself is not an antioxidant, it may promote the closing of PT pores, and form heterodimers with Bax α and protect the mitochondria from injury and thus reduce the production of reactive oxygen, species.

[2] = tested on: Bax α high expressing PC12 cells; experiment: mitochondrial GSH and MDA level in 6-OHDA treated Bax α high expressing PC12 cells; type: cell-based; conditions: for mitochondrial GSH level: without drug 9.84±1.20; for mitochondrial MDA level: without drug 2.46±0.19
Source text: as §1

[3] = tested on: Bax α high expressing PC12 cells; experiment: mitochondrial membrane potential in 6-OHDA treated Bax α high expressing PC12 cells; type: cell-based; conditions: 6-OHDA 12 hours, without drug 24.6
Source text: (§2) Obviously, the increased mitochondrial membrane potential is considered to be one of the antiapoptotic mechanisms of (−) Clausenamide. The increased mitochondrial complex I and complex IV activity may account for the increased mitochondrial membrane potential. The Bax α protein may induce apoptosis by affecting enzyme activities of the mitochondrial electron transfer chain. And the mitochondrial complex I and complex IV could be the targeting points of the Bax α protein.

mitochondrial complex I = mitochondrial complex I activity in Bax α high expressing PC12 cells; type: cell-based; conditions: without drug 1.44±0.16
Source text: as §2

isolated mitochondria = experiment: Bax α induced cytochrome c release from isolated mitochondria; type: biochemical
Source text: Studies have shown that the widely existing cytochrome c plays an important role in inducing apoptosis. Cytochrome c is the water soluble cytochrome within the cell and existed at the outside of the mitochondria inner membrane. Cytochrome c could be released into the cytoplasm from the mitochondrial to activate the apoptotic program. This study first purified the His-tagged Bax protein from the bacteria by the Metal Affinity method. When added to the isolated mitochondria, it caused a significant decrease of mitochondrial cytochrome c content (74.43±5.69 ug/mg, pro vs 50.2±3.65 ug/mg pro, p<0.01). […] It means that (−) clausenamide may also act directly on mitochondrial itself to exert its antiapoptotic activity independent Bcl-2. The exact mechanism of action still remains to be determined.

apoptosis = experiment: three apoptotic models; type: cell-based; conditions: 10^−7−10^−5 mol/l
[4] = tested on: animals with anisodine-induced memory impairment; experiment: memory impairment induced by anisodine in water maze test; type: in vivo; conditions: anisodine + drug 10 mg/kg
Source text: This invention used one trial avoidance task—step-down and step-through tests and water maze to compare the improving memorial effects of (±), (−) clausenamide. The drugs were given orally once to animals before experiment in step-down and step-through tests. The water maze test lasted for 5 days in succession. The results were expressed as latency and errors number.

[5] = tested on: dentate gyrus of hippocampus; experiment: induction of LTP in hippocampal of rat (population spike amplitude); type: in vivo, SD rats; conditions: I.C.V.; means ± SD
Source text: Adult male SD rats were anesthetized to maintain a surgical level. A stainless steel cannula-recording electrode was placed in DG (dentate gyrus) of hippocampus using a stereotaxic instrument. The combination of cannula-recording electrode was constructed by insulating the outside of the cannula, except at the tip and top. In the top noninsulated area, a stainless steel wire was wrapped around the cannula and connected to the amplifier via an amphenol connector. The four pairs optically active clausenamides shown in table 9 was delivered by I.C.V. Responses were evoked via direct stimulation of the performant path (PP) using a stainless steel bipolar stimulating electrode. Constant current stimulation provided by a stimulator was delivered to the stimulating electrode through a Stimulus Isolation Unit.
The stimulating electrode was adjusted until a characteristic EPSP was observed under constant current. The evoked responses were amplified on a series alternating current preamplifier, using a microcomputer, and then stored for off-line analysis using DataWave software. The current intensity that elicited a 50% maximal response in each animal was determined and used for all subsequent stimulation. To measure treatment effects, responses were evoked once every 30 sec throughout the entire experiment, and population spike amplitude(PSA) were calculated.

animals = experiment: nootropic action overall: step-down, step-through and water maze tests; type: in vivo; conditions: in vivo
Experimental: This invention used one trial avoidance task—step-down and step-through tests and water maze to compare the improving memorial effects of (±), (−) clausenamide.
The drugs were given orally once to animals before experiment in step-down and step-through tests. The water maze test lasted for 5 days in succession. The results were expressed as latency and errors number.
The effective dose of piracetam was 500 mg.kg^−1.

potassium channel = potassium channel blockade (nootropic mechanism)
weaning mice = experiment: synapses density in weaning mice; conditions: mouse, in vivo

SMILES: CN1C(=O)[C@@H](O)[C@H](c2ccccc2)[C@@H]1[C@@H](O)c1ccccc1 [(−)clausenamide, 3S, 4R, 5R, 6S (−) Levoclausenamide]
- mossy fiber sprouting in the fascia dentate and stratum lucidum (rats): dose-dependently increased
- Number of error, Acquisition ([1]; β-AP-treated + drug 8 mg/kg): 0.7 ± 0.24
- Number of error, Training ([1]; β-AP-treated + drug 8 mg/kg): 3.1 ± 1.22
- Number of error, Acquisition ([1]; β-AP-treated + drug 40 mg/kg): 1.1 ± 0.27
- Number of error, Training ([1]; β-AP-treated + drug 40 mg/kg): 4.4 ± 0.87
- Bcl-2 expression level (Bcl-2): significantly increase the Bcl-2 expression level
- mitochondrial GSH level ([2]; 10^−5M): 17.78±1.04 nmol/mg pro
- mitochondrial MDA level ([2]; 10^−6M): 1.54±0.13 nmol/mg pro
- mitochondrial GSH level ([2]; 10^−6M): 15.10±0.95 nmol/mg pro
- mitochondrial GSH level ([2]; 10^−7M, 6-OHDA treated): 12.29±0.99 nmol/mg pro
- mitochondrial MDA level ([2]; 10^−7M): 1.76±0.17 nmol/mg pro
- mitochondrial membrane potential ([3]; 10^−6M): 56.0±5.0
- mitochondrial membrane potential ([3]; 10^−7M): 30.7±3.3
- mitochondrial complex I activity (mitochondrial complex I; 10^−5M): 2.16±0.2 umol/mg pro/min
- mitochondrial complex I activity (mitochondrial complex I; 10^−7M): 1.57±0.12 umol/mg pro/min
- mitochondrial cytochrome c content after Bax α induced release (isolated mitochondria; 10^−5M, Bax alone 50.2±3.65): 67.95±7.6 μg/mg pro
- mitochondrial cytochrome c content after Bax α induced release (isolated mitochondria; 10^−6M, Bax alone 50.2±3.65): 61.7±5.3 μg/mg pro
- mitochondrial cytochrome c content after Bax α induced release (isolated mitochondria; 10^−7M, His-tagged Bax alone 50.2±3.65, no Bax 74.43±5.69): 58.73±3.77 μg/mg pro
- apoptosis in three apoptotic models (apoptosis): inhibited apoptosis significantly
- Errors number [4]: 9.4 ± 5.9
- PSA (%), 15 min [5]: 131.8 ± 0.4%
- PSA (%), 30 min [5]: 138.5 ± 8.9%
- PSA (%), 60 min [5]: 158.1 ± 4.2%
- nootropic action, times more potent than (±) clausenamide (animals): 5-10 times
- nootropic action, times more potent than piracetam (animals): 50-100 times
- potassium channel action (potassium channel): potassium channel blocker
- synapses density in weaning mice (weaning mice): increased synapses density
